According to ChEMBL document CHEMBL4507278 (2021):

Tests used:
[1] = target: Atypical kinase COQ8B, mitochondrial (Homo sapiens) (UniProt Q96D53); details: Compound concentration 1000.0 nM
[2] = target: Cyclin-dependent kinase 11B (Homo sapiens) (UniProt P21127); details: Compound concentration 1000.0 nM
[3] = target: Serine/threonine-protein kinase Chk1 (Homo sapiens) (UniProt O14757); details: Compound concentration 1000.0 nM
[4] = target: Casein kinase II subunit alpha (Homo sapiens) (UniProt P68400); details: Compound concentration 1000.0 nM
Casein kinase II subunit alpha (Homo sapiens), sequence (P68400 whole entry, looked up): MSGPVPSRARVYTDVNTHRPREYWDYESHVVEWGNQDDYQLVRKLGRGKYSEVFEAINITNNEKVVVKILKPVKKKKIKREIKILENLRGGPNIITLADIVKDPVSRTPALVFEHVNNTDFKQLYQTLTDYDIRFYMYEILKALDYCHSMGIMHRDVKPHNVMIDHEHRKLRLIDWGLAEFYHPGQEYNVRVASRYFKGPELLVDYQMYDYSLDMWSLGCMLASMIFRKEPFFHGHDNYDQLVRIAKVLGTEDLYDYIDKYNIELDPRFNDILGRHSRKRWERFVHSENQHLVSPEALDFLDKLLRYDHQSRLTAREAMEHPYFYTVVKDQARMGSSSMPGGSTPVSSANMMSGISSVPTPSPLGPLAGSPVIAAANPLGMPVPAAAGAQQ

[5] = target: Ephrin type-A receptor 6 (Homo sapiens) (UniProt Q9UF33); details: Compound concentration 1000.0 nM
[6] = target: Mitogen-activated protein kinase 4 (Homo sapiens) (UniProt P31152); details: Compound concentration 1000.0 nM
[7] = test system: Receptor-type tyrosine-protein kinase FLT3 (Homo sapiens), P36888 [D835H]; details: Compound concentration 1000.0 nM
[8] = target: Tyrosine-protein kinase FRK (Homo sapiens) (UniProt P42685); details: Compound concentration 1000.0 nM
Tyrosine-protein kinase FRK (Homo sapiens), sequence (P42685 whole entry): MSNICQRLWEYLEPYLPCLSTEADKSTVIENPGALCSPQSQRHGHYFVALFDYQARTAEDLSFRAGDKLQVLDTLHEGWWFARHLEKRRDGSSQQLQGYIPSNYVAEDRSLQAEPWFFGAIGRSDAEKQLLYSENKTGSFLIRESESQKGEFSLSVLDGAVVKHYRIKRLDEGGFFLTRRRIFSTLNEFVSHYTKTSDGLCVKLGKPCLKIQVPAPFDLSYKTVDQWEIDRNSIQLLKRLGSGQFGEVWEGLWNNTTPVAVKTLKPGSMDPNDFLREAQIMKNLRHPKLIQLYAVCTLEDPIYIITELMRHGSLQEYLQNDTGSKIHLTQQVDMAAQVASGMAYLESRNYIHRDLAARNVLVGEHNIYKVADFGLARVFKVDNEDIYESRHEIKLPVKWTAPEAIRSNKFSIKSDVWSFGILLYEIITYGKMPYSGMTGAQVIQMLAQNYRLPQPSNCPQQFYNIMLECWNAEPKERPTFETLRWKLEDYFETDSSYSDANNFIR

[9] = target: Rhodopsin kinase GRK1 (Homo sapiens) (UniProt Q15835); details: Compound concentration 1000.0 nM
[10] = test system: Mast/stem cell growth factor receptor Kit (Homo sapiens), P10721 [D816V]; details: Compound concentration 1000.0 nM
[11] = test system: Mast/stem cell growth factor receptor Kit (Homo sapiens), P10721 [L576P]; details: Compound concentration 1000.0 nM
[12] = test system: Mast/stem cell growth factor receptor Kit (Homo sapiens), P10721 [V559D,V654A]; details: Compound concentration 1000.0 nM
[13] = target: MAP kinase-interacting serine/threonine-protein kinase 2 (Homo sapiens) (UniProt Q9HBH9); details: Compound concentration 1000.0 nM
MAP kinase-interacting serine/threonine-protein kinase 2 (Homo sapiens), sequence (Q9HBH9 whole entry, looked up): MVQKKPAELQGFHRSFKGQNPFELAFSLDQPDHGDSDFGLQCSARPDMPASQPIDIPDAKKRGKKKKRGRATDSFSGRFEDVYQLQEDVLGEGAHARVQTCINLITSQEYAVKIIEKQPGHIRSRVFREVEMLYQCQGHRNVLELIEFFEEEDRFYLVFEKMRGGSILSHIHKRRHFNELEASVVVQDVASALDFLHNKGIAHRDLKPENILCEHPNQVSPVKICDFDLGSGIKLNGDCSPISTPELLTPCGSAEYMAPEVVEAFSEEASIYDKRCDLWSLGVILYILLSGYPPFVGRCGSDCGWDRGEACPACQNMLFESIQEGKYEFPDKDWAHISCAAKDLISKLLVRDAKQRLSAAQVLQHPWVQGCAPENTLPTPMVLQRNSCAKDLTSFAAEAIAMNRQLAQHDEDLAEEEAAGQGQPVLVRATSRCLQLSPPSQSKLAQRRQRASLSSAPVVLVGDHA

[14] = target: Serine/threonine-protein kinase 26 (Homo sapiens) (UniProt Q9P289); details: Compound concentration 1000.0 nM
[15] = target: Calcium-dependent protein kinase 1 (Plasmodium falciparum) (UniProt P62344); details: Compound concentration 1000.0 nM
[16] = target: Cyclin-dependent kinase 2 homolog (Plasmodium falciparum (isolate 3D7)) (UniProt P61075); details: Compound concentration 1000.0 nM
Cyclin-dependent kinase 2 homolog (Plasmodium falciparum (isolate 3D7)), sequence (P61075 whole entry): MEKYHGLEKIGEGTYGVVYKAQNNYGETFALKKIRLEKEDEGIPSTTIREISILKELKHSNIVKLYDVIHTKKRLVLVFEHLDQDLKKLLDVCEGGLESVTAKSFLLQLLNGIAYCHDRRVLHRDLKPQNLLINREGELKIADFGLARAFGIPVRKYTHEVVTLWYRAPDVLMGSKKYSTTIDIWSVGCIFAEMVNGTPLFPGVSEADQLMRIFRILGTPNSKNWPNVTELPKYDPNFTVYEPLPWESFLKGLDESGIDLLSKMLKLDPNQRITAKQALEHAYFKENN

[17] = target: Cyclin-dependent kinase 14 (Homo sapiens) (UniProt O94921); details: Compound concentration 1000.0 nM
Cyclin-dependent kinase 14 (Homo sapiens), sequence (O94921 whole entry): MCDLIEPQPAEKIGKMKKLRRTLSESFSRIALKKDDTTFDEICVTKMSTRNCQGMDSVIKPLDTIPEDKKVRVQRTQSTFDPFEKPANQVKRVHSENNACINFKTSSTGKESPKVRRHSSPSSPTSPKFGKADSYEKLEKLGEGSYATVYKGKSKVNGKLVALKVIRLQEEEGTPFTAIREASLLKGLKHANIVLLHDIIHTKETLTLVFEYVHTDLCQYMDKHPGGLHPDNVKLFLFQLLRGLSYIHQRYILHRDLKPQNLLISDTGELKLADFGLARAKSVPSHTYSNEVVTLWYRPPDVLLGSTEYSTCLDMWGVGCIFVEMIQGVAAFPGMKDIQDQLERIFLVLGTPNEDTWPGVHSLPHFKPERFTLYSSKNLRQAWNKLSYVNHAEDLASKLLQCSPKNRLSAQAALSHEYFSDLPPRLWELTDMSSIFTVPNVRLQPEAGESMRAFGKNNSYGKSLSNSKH

[18] = target: cAMP-dependent protein kinase catalytic subunit alpha (Homo sapiens) (UniProt P17612); details: Compound concentration 1000.0 nM
[19] = target: Serine/threonine-protein kinase N2 (Homo sapiens) (UniProt Q16513); details: Compound concentration 1000.0 nM
[20] = target: cGMP-dependent protein kinase 1 (Homo sapiens) (UniProt Q13976); details: Compound concentration 1000.0 nM
[21] = target: Interferon-induced, double-stranded RNA-activated protein kinase (Homo sapiens) (UniProt P19525); details: Compound concentration 1000.0 nM
Interferon-induced, double-stranded RNA-activated protein kinase (Homo sapiens), sequence (P19525 whole entry): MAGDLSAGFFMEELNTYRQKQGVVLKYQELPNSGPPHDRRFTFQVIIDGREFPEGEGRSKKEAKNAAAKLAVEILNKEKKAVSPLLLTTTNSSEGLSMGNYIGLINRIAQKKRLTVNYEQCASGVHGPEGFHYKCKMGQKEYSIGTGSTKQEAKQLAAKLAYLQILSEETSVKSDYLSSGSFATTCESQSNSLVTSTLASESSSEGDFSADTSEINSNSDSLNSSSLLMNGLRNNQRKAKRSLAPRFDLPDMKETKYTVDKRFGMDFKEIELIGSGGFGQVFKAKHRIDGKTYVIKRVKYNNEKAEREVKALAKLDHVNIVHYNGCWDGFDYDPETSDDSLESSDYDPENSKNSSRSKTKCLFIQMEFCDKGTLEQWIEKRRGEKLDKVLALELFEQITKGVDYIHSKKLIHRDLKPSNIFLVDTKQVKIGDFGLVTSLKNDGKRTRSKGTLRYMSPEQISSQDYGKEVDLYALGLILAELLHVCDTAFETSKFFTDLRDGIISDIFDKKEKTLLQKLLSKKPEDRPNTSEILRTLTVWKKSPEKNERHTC

[22] = target: Serine/threonine-protein kinase SIK3 (Homo sapiens) (UniProt Q9Y2K2); details: Compound concentration 1000.0 nM
[23] = test system: Proto-oncogene tyrosine-protein kinase receptor Ret (Homo sapiens), P07949 [M918T]; details: Compound concentration 1000.0 nM
[24] = target: Rho-associated protein kinase 1 (Homo sapiens) (UniProt Q13464); details: Compound concentration 1000.0 nM
[25] = target: Ribosomal protein S6 kinase alpha-5 (Homo sapiens) (UniProt O75582); details: Compound concentration 1000.0 nM
[26] = target: Ribosomal protein S6 kinase alpha-1 (Homo sapiens) (UniProt Q15418); details: Compound concentration 1000.0 nM
[27] = target: Ribosomal protein S6 kinase alpha-2 (Homo sapiens) (UniProt Q15349); details: Compound concentration 1000.0 nM
[28] = target: Ribosomal protein S6 kinase beta-1 (Homo sapiens) (UniProt P23443); details: Compound concentration 1000.0 nM
Ribosomal protein S6 kinase beta-1 (Homo sapiens), sequence (P23443 whole entry, looked up): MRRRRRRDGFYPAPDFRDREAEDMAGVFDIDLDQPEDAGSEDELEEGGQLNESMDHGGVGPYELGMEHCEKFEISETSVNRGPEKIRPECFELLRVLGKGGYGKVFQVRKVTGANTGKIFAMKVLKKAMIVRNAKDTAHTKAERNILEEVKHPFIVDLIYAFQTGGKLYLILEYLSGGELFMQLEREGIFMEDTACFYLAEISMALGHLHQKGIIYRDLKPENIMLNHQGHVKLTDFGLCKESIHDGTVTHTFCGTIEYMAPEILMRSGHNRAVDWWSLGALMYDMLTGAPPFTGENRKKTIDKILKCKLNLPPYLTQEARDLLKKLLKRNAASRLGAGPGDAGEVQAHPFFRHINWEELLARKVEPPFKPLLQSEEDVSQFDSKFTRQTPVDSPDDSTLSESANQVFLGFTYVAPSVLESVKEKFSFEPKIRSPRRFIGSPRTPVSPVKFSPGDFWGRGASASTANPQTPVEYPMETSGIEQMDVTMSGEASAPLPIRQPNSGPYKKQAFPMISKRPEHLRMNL

[29] = target: Serine/threonine-protein kinase SIK2 (Homo sapiens) (UniProt Q9H0K1); details: Compound concentration 1000.0 nM
[30] = target: NUAK family SNF1-like kinase 2 (Homo sapiens) (UniProt Q9H093); details: Compound concentration 1000.0 nM
[31] = target: STE20/SPS1-related proline-alanine-rich protein kinase (Homo sapiens) (UniProt Q9UEW8); details: Compound concentration 1000.0 nM
[32] = target: Transient receptor potential cation channel subfamily M member 6 (Homo sapiens) (UniProt Q9BX84); details: Compound concentration 1000.0 nM
[33] = target: Mitogen-activated protein kinase kinase kinase 20 (Homo sapiens) (UniProt Q9NYL2); details: Compound concentration 1000.0 nM
[34] = target: Mu-type opioid receptor (Homo sapiens) (UniProt P35372); details: Compound concentration 10.0 uM
[35] = target: Histamine H1 receptor (Homo sapiens) (UniProt P35367); details: Compound concentration 10.0 uM
Histamine H1 receptor (Homo sapiens), sequence (P35367 whole entry): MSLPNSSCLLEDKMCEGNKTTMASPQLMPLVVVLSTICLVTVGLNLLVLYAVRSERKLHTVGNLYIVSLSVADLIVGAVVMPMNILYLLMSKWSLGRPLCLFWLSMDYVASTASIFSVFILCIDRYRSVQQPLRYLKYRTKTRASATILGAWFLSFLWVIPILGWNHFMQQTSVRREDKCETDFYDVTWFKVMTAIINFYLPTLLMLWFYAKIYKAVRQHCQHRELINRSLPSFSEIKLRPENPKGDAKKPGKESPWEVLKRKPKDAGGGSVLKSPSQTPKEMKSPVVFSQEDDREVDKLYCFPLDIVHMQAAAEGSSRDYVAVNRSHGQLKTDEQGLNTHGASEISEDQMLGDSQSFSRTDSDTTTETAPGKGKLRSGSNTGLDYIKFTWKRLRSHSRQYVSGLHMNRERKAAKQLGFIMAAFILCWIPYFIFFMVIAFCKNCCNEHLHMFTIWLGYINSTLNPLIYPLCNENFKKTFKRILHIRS

[36] = target: T1, Alpha-1D adrenergic receptor (Homo sapiens) (UniProt P25100); details: Compound concentration 10.0 uM
T1 sequence (whole entry): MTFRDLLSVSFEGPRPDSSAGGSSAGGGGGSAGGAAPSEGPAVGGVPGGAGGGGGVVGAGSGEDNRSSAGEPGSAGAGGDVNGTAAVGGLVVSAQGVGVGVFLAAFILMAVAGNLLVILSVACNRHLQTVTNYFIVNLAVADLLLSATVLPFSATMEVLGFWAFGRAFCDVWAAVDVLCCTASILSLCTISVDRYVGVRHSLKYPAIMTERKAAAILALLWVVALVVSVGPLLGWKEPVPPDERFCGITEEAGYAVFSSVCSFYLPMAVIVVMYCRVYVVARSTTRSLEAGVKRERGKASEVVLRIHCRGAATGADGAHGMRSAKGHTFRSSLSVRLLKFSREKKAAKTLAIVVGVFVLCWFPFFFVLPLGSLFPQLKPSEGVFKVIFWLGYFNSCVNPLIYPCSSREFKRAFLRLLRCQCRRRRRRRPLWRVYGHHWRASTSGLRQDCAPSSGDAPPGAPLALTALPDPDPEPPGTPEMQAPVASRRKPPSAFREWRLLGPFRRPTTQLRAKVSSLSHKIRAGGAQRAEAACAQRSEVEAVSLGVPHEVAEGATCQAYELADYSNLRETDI

[37] = target: Sigma non-opioid intracellular receptor 1 (Homo sapiens) (UniProt Q99720); details: Compound concentration 10.0 uM
Sigma non-opioid intracellular receptor 1 (Homo sapiens), sequence (Q99720 whole entry): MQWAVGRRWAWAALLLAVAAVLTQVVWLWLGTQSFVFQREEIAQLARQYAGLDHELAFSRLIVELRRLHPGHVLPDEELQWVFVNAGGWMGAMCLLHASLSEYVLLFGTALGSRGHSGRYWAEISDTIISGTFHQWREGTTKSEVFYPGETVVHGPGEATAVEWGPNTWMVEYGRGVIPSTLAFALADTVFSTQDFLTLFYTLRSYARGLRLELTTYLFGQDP

Atypical kinase COQ8B, mitochondrial (Homo sapiens), sequence (Q96D53 whole entry): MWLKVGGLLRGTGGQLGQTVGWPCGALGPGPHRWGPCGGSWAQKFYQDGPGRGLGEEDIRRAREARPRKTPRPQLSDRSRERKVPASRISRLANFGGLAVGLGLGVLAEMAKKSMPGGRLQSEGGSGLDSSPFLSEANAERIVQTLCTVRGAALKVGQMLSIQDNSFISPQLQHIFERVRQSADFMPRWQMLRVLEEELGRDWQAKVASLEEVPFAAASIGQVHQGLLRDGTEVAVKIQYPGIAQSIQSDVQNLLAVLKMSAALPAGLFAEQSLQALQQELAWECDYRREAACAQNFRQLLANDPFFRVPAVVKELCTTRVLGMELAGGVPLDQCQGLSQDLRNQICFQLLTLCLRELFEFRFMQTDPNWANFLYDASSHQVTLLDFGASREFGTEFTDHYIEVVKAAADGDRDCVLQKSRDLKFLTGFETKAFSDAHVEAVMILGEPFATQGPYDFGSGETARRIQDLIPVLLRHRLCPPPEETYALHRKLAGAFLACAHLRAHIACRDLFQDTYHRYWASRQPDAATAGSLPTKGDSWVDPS
Serine/threonine-protein kinase Chk1 (Homo sapiens), sequence (O14757 whole entry): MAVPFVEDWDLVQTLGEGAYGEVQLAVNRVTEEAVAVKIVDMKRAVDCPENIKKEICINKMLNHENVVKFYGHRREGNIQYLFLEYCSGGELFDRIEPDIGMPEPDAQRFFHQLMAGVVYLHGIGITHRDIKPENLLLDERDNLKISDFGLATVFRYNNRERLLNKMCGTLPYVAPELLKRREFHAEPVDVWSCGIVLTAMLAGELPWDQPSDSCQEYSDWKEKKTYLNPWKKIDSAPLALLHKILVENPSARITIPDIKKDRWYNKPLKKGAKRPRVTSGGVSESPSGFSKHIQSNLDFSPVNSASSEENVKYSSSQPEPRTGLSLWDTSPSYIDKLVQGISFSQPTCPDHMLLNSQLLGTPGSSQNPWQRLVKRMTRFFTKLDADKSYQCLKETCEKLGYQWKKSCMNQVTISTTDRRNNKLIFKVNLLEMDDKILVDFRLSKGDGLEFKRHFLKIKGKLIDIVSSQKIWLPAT

CS(=O)(=O)c1cc(C2(NC(=O)c3cncc4c3cnn4-c3ccc(F)cc3)CC2)ccn1 [BI 639667]
inactive: residual activity [1] 100% | residual activity [2] 81% | residual activity [3] 100% | residual activity [4] 64% | residual activity [5] 100% | residual activity [6] 79% | residual activity [7] 100% | residual activity [8] 58% | residual activity [9] 87% | residual activity [10] 100% | residual activity [11] 100% | residual activity [12] 88% | residual activity [13] 100% | residual activity [14] 97% | residual activity [15] 99% | residual activity [16] 100% | residual activity [17] 100% | residual activity [18] 100% | residual activity [19] 100% | residual activity [20] 100% | residual activity [21] 60% | residual activity [22] 81% | residual activity [23] 100% | residual activity [24] 79% | residual activity [25] 100% | residual activity [26] 77% | residual activity [27] 100% | residual activity [28] 100% | residual activity [29] 100% | residual activity [30] 100% | residual activity [31] 58% | residual activity [32] 91% | residual activity [33] 86% | inhibition [34] -7.9% | inhibition [35] 11.2% | inhibition [36] -7.67% | inhibition [37] 26.4%

CS(=O)(=O)NCC[C@H](NC(=O)c1cncc2c1cnn2-c1ccc(F)cc1)c1ccnc(S(C)(=O)=O)c1 [BI 9307]
inactive: residual activity [1] 100% | residual activity [2] 100% | residual activity [3] 97% | residual activity [4] 100% | residual activity [5] 100% | residual activity [6] 100% | residual activity [7] 100% | residual activity [8] 100% | residual activity [9] 100% | residual activity [10] 94% | residual activity [11] 100% | residual activity [12] 100% | residual activity [13] 100% | residual activity [14] 98% | residual activity [15] 99% | residual activity [16] 100% | residual activity [17] 100% | residual activity [18] 100% | residual activity [19] 100% | residual activity [20] 96% | residual activity [21] 53% | residual activity [22] 98% | residual activity [23] 100% | residual activity [24] 100% | residual activity [25] 88% | residual activity [26] 100% | residual activity [27] 100% | residual activity [28] 86% | residual activity [29] 100% | residual activity [30] 100% | residual activity [31] 80% | residual activity [32] 100% | residual activity [33] 88% | inhibition [34] -0.92% | inhibition [35] 12.5% | inhibition [36] -9.49% | inhibition [37] 7.62%
